The values below are quoted from earlier work in US20070191228A1, “Natural herbicide” (priority 2005, published 2007).

Series [1] deals with sorghum (Sorghhum bicolor (L.)). The conditions noted are these: Owens 1973.
Series [2] deals with large crabgrass (Digitaria sanguimalis). To be noted: Owens 1973.

Consider `N[C@H](CO)CO/C=C/[C@H](N)C(=O)O` [Rhizobitoxine, rhizobitoxine], for which the herbicidal activity entry in series [1] and in series [2] was “herbicidal” throughout.
